# Reference: patent US11484601B2, “Targeting M2-like tumor-associated macrophages by using melittin-based proapoptotic peptide” (TWI[…]., priority 2018, dated 2022)
# Key:
# [1] = system: M1-type tumor-associated macrophage (CD45+F4/80+CD86+); assay: Flow cytometry of tumor tissue, M1-type TAM; format: in vivo, mouse; details: MEL vs PBS and dKLA groups; MEL-dKLA vs MEL group
# Protocol: More specifically, the tumor cells were thinly crushed and separated from each other in DMEM to which DNasel (1 U/mL) and collagenase D (1 mg/mL) were added. The tissue was gently agitated for 1 hour at 37° C., and separated using a […] nylon mesh filter. Red blood cells were dissolved in Phrmlyse buffer (BE bioscience). Individual cells passed through a 40-μm nylon mesh filter and then were stained with following antibodies: CD4+ T cell (CD45+CD4+CD8−), CD8+ T cell (CD45+CD4−CD8+), Foxp3+ regulatory T cell (CD4+CD25+Foxp3+), dendritic cell (CD45+CD11b+CD11c+), and M1 (CD45+F4/80+CD86+) or M2 macrophage (CD45+F4/80+CD206+): anti-CD45-FITC, anti-CD4-phycoerythrin (PE), anti-CD8-allophycocyanin (APC), anti-CD4-FITC, anti-CD25-PE, anti-Foxp3-Alexa Fluor647, anti-CD11b-APC, anti-CD11c-APCcy7, anti-Grl-PEcy7, anti-CD86-PEcy7, and anti-CD206-APC antibodies. Annexin-V was previously treated to measure the cell percentage of macrophages.
# [2] = MTS cell viability assay, M1-type macrophage; format: cell-based; details: mouse, RAW264.7 macrophages differentiated into M1-type with LPS, 0.6 to 0.8 μM
# Protocol: (§1) More specifically, dKLA (SEQ ID NO: 2), MEL (SEQ ID NO: 1), MEL-dKLA (SEQ ID NO: 3; […]-d[KLAKLAKKLAKLAK]) peptide and 5-carboxyl tetramethylrhodamine (TMR)-conjugated dKLA, MEL and MEL-KLA peptides were purchased from GenScript (Piscataway, N.J., USA). TMR was conjugated with the amino group located at the N-terminal of the peptide. Regarding all of the peptides, 95% or greater purified peptides were used. Murine Lewis lung carcinoma (LLC) cells and macrophage RAW264.7 of mice were cultured in Dulbecco's modified Eagle's medium (DMEM; Welgene, Korea) to which 10% heat-inactivated fetal bovine serum (Welgene), 100 U/mL penicillin and 100 μg/mL streptomycin (Invitrogen, CA, USA) were added. Macrophage (RAW264.7) differentiated into M2-type was treated with IL-4 and IL-13 in the medium for 24 hours. After the treatment, the cells were cultured in a state in which serum was insufficient for 48 hours. M1-type macrophage was treated with 1 ng/mL of LPS for 24 hours to induce differentiation.
# The cell viability test was measured via the MTS assay. RAW264.7 macrophage was differentiated into M1-type or M2-type macrophage which was inoculated onto a 96-well plate at 3×10^4 cells/well. The next day, the macrophage was treated with each of PBS, dKLA, MEL and MEL-dKLA. […] Then, fluorescence was measured at 490 nm to measure cell viability.
# [3] = system: CD31+ endothelial cells of LLC tumors; assay: CD31 immunofluorescence staining of tumor endothelial cells; format: in vivo, mouse; details: LLC tumor sections
# From the text: CD31 (PECAM-1) is […] the vascular endothelium, and is well-known as a marker that may indicate angiogenesis. The angiogenesis in tumors is essential means to supply oxygen and nutrients to areas at a low oxygen level in the tumor and thus is closely related to cancer growth and metastasis. M2-type macrophages are major precursors of angiogenic factors, and contain cyclooxygenase-2, matrix metalloproteinase-9 and VEGF. The density of macrophage is related to angiogenesis. Therefore, immunostaining was performed and a confocal device was used to identify whether a decrease in the M2-type tumor-associated macrophage (TAM) in a tumor causes a decrease in angiogenesis.
# More specifically, the tissue was […] with paraformaldehyde for 24 hours. Then, the tissue was cut into sections having 4 μm thickness using a rotary microtome, which in turn was restored via autoclaving under pressure for 1 minute with tri-sodium citrate buffer. […] After the staining, the sections were mounted on and analyzed using a laser scanning confocal microscope (Carl Zeiss). All images are taken using LSMS PASCAL, and fluorescence values were analyzed using ImageJ software.
# M1 macrophage = assay: Annexin V-FITC / MitoTracker flow cytometry, M1 macrophage; format: cell-based, mouse; details: 0.8 μM peptide
# Protocol: More specifically, the cells were stained with Annexin V-fluorescein isothiocyanate (FITC; BD Biosciences, CA, USA) and MitoTracker RedBOX (Invitrogen). The cells were inoculated at 5×10^5 cells/well, onto a 24-well plate. The next day, 0.8 μM peptide was applied thereto. In 1, 3 and 6 hours after the application, the cells were reacted with 250 nM MitoTracker for 1 hour in a serum-free culture solution. Thereafter, the cells were collected and reacted with Annexin V again. The reacted cells were measured with BD FACSCalibur, and were analyzed via FlowJo software (Treestar, Inc., CA, USA). MitoTracker could pass through protoplasmic membrane depending on the membrane charge and then accumulated within the mitochondria. In other words, staining may be identified in the mitochondria membrane of living cells, but staining may be difficult in cells where apoptosis occurs due to membrane disturbance.
# [4] = system: M2 macrophage (RAW264.7 differentiated into M2-type with IL-4 and IL-13); assay: MTS cell viability assay, M2-type macrophage; format: cell-based, mouse; details: 24 hours, read-out: half-maximal inhibitory concentration (IC50) against M2 macrophage
# Protocol: as §1
# (§2) The cell viability test was measured via the MTS assay. RAW264.7 macrophage was differentiated into M1-type or M2-type macrophage which was inoculated onto a 96-well plate at 3×10^4 cells/well. The next day, the macrophage was treated with each of PBS, dKLA, MEL and MEL-dKLA. After 24 hours, the culture solution was replaced and the cell was treated with 20 μL MTS reaction solution (Promega, WI, USA), followed by reaction at 37° C. Then, […] was measured at 490 nm to measure cell viability.
# (§3) The MEL-DM1 anticancer drug conjugation method and cell test method are as described above.
# [5] = MTS cell viability assay, M2-type macrophage; format: cell-based, mouse; details: mouse, M2 macrophage, 0.6 to 0.5 μM, reaction for 24 hours
# Protocol: as §1, §2, §3
compound,measurement,setting,value
CC[C@H](C)[C@H](NC(=O)CN)C(=O)NCC(=O)N[C@@H](C)C(=O)N[C@H](C(=O)N[C@@H](CC(C)C)C(=O)N[C@@H](CCCCN)C(=O)N[C@H](C(=O)N[C@@H](CC(C)C)C(=O)N[C@H](C(=O)N[C@H](C(=O)NCC(=O)N[C@@H](CC(C)C)C(=O)N1CCC[C@H]1C(=O)N[C@@H](C)C(=O)N[C@@H](CC(C)C)C(=O)N[C@H](C(=O)N[C@@H](CO)C(=O)N[C@@H](Cc1c[nH]c2ccccc12)C(=O)N[C@H](C(=O)N[C@@H](CCCCN)C(=O)N[C@@H](CCCNC(=N)N)C(=O)N[C@@H](CCCCN)C(=O)N[C@@H](CCCNC(=N)N)C(=O)N[C@@H](CCC(N)=O)C(=O)N[C@@H](CCC(N)=O)C(N)=O)[C@@H](C)CC)[C@@H](C)CC)[C@@H](C)O)[C@@H](C)O)C(C)C)C(C)C [MEL],F480+ CD86+ M1-type tumor-associated macrophage in tumor,[1],slightly increased
same,viability at 24 h,[2],74%
same,CD31+ endothelial cells (blood vessel density),[3],significant decrease
same,Annexin V / MitoTracker staining effect on M1 macrophage,M1 macrophage; 1 to 3 hours,the effect did not appear
same,Annexin V / MitoTracker staining change in M1 macrophage,M1 macrophage; 6 hours,no significant change
same,IC50,[4],600 to 800 nM
same,viability at 24 h,[5],71 to 79%
